Results: ChEMBL document CHEMBL3885881, “DrugMatrix”

Species on record: Rattus norvegicus
Assay: DrugMatrix - Regimen: Daily Repeat
Format: toxicity, organism-based, Sprague-Dawley
Parameters: regimen Daily Repeat, gender Male, age 6-8 weeks
Conditions: in vivo, po, route oral GAVAGE, vehicle .5 % CMC; for ABSOLUTE BASOPHIL / ABSOLUTE EOSINOPHIL / ABSOLUTE LYMPHOCYTE / ABSOLUTE MONOCYTE / ABSOLUTE SEGMENTED NEUTROPHIL / BASOPHIL / EOSINOPHIL / ERYTHROCYTE COUNT / HEMATOCRIT / HEMOGLOBIN / LEUKOCYTE COUNT / LYMPHOCYTE / MEAN CORPUSCULAR HEMOGLOBIN / MEAN CORPUSCULAR HEMOGLOBIN CONCENTRATION / MEAN CORPUSCULAR VOLUME / MONOCYTE / NEUTROPHIL / NUCLEATED RED BLOOD CELLS / PLATELET COUNT: tissue Blood; for ALANINE AMINOTRANSFERASE / ALBUMIN / ALKALINE PHOSPHATASE / ASPARTATE AMINOTRANSFERASE / BLOOD UREA NITROGEN / CARBON DIOXIDE / CHLORIDE / CHOLESTEROL / CREATINE PHOSPHOKINASE / CREATININE / GLUCOSE / LACTATE DEHYDROGENASE / LIPASE / PHOSPHORUS / POTASSIUM / SODIUM / TOTAL BILIRUBIN / TOTAL PROTEIN / URIC ACID: tissue Plasma
[1] = 80 mg/kg, 72 h, dose level Low, time 3 day
[2] = 80 mg/kg, 120 h, dose level Low, time 5 day
[3] = 1500 mg/kg, 72 h, dose level High, time 3 day
[4] = 1500 mg/kg, 120 h, dose level High, time 5 day

## Cc1cc(=O)n(-c2ccccc2)n1C [ANTIPYRINE]
[1]
  ABSOLUTE BASOPHIL: 0 CELLS/uL
  ABSOLUTE EOSINOPHIL: 91.33 CELLS/uL
  ABSOLUTE LYMPHOCYTE: 12252 CELLS/uL
  ABSOLUTE MONOCYTE: 196 CELLS/uL
  ABSOLUTE SEGMENTED NEUTROPHIL: 1827.33 CELLS/uL
  BASOPHIL: 0%
  EOSINOPHIL: 0.67%
  ERYTHROCYTE COUNT: 5.35 x10E6/uL
  HEMATOCRIT: 34.23%
  HEMOGLOBIN: 13.5 G/DL
  LEUKOCYTE COUNT: 14.37 x10E3/uL
  LYMPHOCYTE: 86%
  MEAN CORPUSCULAR HEMOGLOBIN: 25.27 pg
  MEAN CORPUSCULAR HEMOGLOBIN CONCENTRATION: 39.43 G/DL
  MEAN CORPUSCULAR VOLUME: 64 fL
  MONOCYTE: 1.33%
  NEUTROPHIL: 12%
  NUCLEATED RED BLOOD CELLS: 0.33 /100WBC
  PLATELET COUNT: 1283.67 x10E3/uL
  ALANINE AMINOTRANSFERASE: 47.67 u/L
  ALBUMIN: 4.47 G/DL
  ALKALINE PHOSPHATASE: 419 u/L
  ASPARTATE AMINOTRANSFERASE: 82 u/L
  BLOOD UREA NITROGEN: 18 mg/dL
  CARBON DIOXIDE: 23.33 mmol/L
  CHLORIDE: 103.67 MEQ/L
  CHOLESTEROL: 77 mg/dL
  CREATINE PHOSPHOKINASE: 225 u/L
  CREATININE: 0.22 mg/dL
  GLUCOSE: 163 mg/dL
  LACTATE DEHYDROGENASE: 184 u/L
  LIPASE: 9.67 u/L
  PHOSPHORUS: 13.9 mg/dL
  POTASSIUM: 7.07 MEQ/L
  SODIUM: 147.1 MEQ/L
  TOTAL BILIRUBIN: 0.27 mg/dL
  TOTAL PROTEIN: 6.23 G/DL
  URIC ACID: 1.77 mg/dL
[2]
  ABSOLUTE BASOPHIL: 0 CELLS/uL
  ABSOLUTE EOSINOPHIL: 104 CELLS/uL
  ABSOLUTE LYMPHOCYTE: 12025 CELLS/uL
  ABSOLUTE MONOCYTE: 0 CELLS/uL
  ABSOLUTE SEGMENTED NEUTROPHIL: 871 CELLS/uL
  BASOPHIL: 0%
  EOSINOPHIL: 0.67%
  ERYTHROCYTE COUNT: 5.47 x10E6/uL
  HEMATOCRIT: 35.87%
  HEMOGLOBIN: 13.93 G/DL
  LEUKOCYTE COUNT: 13 x10E3/uL
  LYMPHOCYTE: 92.33%
  MEAN CORPUSCULAR HEMOGLOBIN: 25.53 pg
  MEAN CORPUSCULAR HEMOGLOBIN CONCENTRATION: 38.9 G/DL
  MEAN CORPUSCULAR VOLUME: 65.6 fL
  MONOCYTE: 0%
  NEUTROPHIL: 7%
  NUCLEATED RED BLOOD CELLS: 0.33 /100WBC
  PLATELET COUNT: 1274.33 x10E3/uL
  ALANINE AMINOTRANSFERASE: 48 u/L
  ALBUMIN: 4.27 G/DL
  ALKALINE PHOSPHATASE: 367.33 u/L
  ASPARTATE AMINOTRANSFERASE: 83 u/L
  BLOOD UREA NITROGEN: 15.67 mg/dL
  CARBON DIOXIDE: 26.33 mmol/L
  CHLORIDE: 101 MEQ/L
  CHOLESTEROL: 76.33 mg/dL
  CREATINE PHOSPHOKINASE: 353 u/L
  CREATININE: 0.16 mg/dL
  GLUCOSE: 179.67 mg/dL
  LACTATE DEHYDROGENASE: 147.67 u/L
  LIPASE: 8.67 u/L
  PHOSPHORUS: 12.13 mg/dL
  POTASSIUM: 7.07 MEQ/L
  SODIUM: 141.77 MEQ/L
  TOTAL BILIRUBIN: 0.13 mg/dL
  TOTAL PROTEIN: 5.97 G/DL
  URIC ACID: 2.27 mg/dL
[3]
  ABSOLUTE BASOPHIL: 0 CELLS/uL
  ABSOLUTE EOSINOPHIL: 55 CELLS/uL
  ABSOLUTE LYMPHOCYTE: 14551 CELLS/uL
  ABSOLUTE MONOCYTE: 220 CELLS/uL
  ABSOLUTE SEGMENTED NEUTROPHIL: 1207.33 CELLS/uL
  BASOPHIL: 0%
  EOSINOPHIL: 0.33%
  ERYTHROCYTE COUNT: 5.53 x10E6/uL
  HEMATOCRIT: 35.67%
  HEMOGLOBIN: 14.13 G/DL
  LEUKOCYTE COUNT: 16.03 x10E3/uL
  LYMPHOCYTE: 90.67%
  MEAN CORPUSCULAR HEMOGLOBIN: 25.6 pg
  MEAN CORPUSCULAR HEMOGLOBIN CONCENTRATION: 39.63 G/DL
  MEAN CORPUSCULAR VOLUME: 64.5 fL
  MONOCYTE: 1.33%
  NEUTROPHIL: 7.67%
  NUCLEATED RED BLOOD CELLS: 0.33 /100WBC
  PLATELET COUNT: 1257 x10E3/uL
  ALANINE AMINOTRANSFERASE: 71 u/L
  ALBUMIN: 4.27 G/DL
  ALKALINE PHOSPHATASE: 404.67 u/L
  ASPARTATE AMINOTRANSFERASE: 85 u/L
  BLOOD UREA NITROGEN: 14 mg/dL
  CARBON DIOXIDE: 37 mmol/L
  CHLORIDE: 99.33 MEQ/L
  CHOLESTEROL: 76 mg/dL
  CREATINE PHOSPHOKINASE: 183.33 u/L
  CREATININE: 0.17 mg/dL
  GLUCOSE: 141.67 mg/dL
  LACTATE DEHYDROGENASE: 103.33 u/L
  LIPASE: 9.67 u/L
  PHOSPHORUS: 10.07 mg/dL
  POTASSIUM: 6.57 MEQ/L
  SODIUM: 143.77 MEQ/L
  TOTAL BILIRUBIN: 0.2 mg/dL
  TOTAL PROTEIN: 5.83 G/DL
  URIC ACID: 1.53 mg/dL
[4]
  ABSOLUTE BASOPHIL: 0 CELLS/uL
  ABSOLUTE EOSINOPHIL: 0 CELLS/uL
  ABSOLUTE LYMPHOCYTE: 19193.67 CELLS/uL
  ABSOLUTE MONOCYTE: 792.67 CELLS/uL
  ABSOLUTE SEGMENTED NEUTROPHIL: 3680.33 CELLS/uL
  BASOPHIL: 0%
  EOSINOPHIL: 0%
  ERYTHROCYTE COUNT: 5.35 x10E6/uL
  HEMATOCRIT: 35.1%
  HEMOGLOBIN: 14.13 G/DL
  LEUKOCYTE COUNT: 23.67 x10E3/uL
  LYMPHOCYTE: 81.33%
  MEAN CORPUSCULAR HEMOGLOBIN: 26.43 pg
  MEAN CORPUSCULAR HEMOGLOBIN CONCENTRATION: 40.27 G/DL
  MEAN CORPUSCULAR VOLUME: 65.7 fL
  MONOCYTE: 3.67%
  NEUTROPHIL: 15%
  NUCLEATED RED BLOOD CELLS: 0.33 /100WBC
  PLATELET COUNT: 1282 x10E3/uL
  ALANINE AMINOTRANSFERASE: 57.67 u/L
  ALBUMIN: 4.27 G/DL
  ALKALINE PHOSPHATASE: 338.33 u/L
  ASPARTATE AMINOTRANSFERASE: 86 u/L
  BLOOD UREA NITROGEN: 16.33 mg/dL
  CARBON DIOXIDE: 36 mmol/L
  CHLORIDE: 103 MEQ/L
  CHOLESTEROL: 72.33 mg/dL
  CREATINE PHOSPHOKINASE: 309 u/L
  CREATININE: 0.24 mg/dL
  GLUCOSE: 135 mg/dL
  LACTATE DEHYDROGENASE: 379.67 u/L
  LIPASE: 10 u/L
  PHOSPHORUS: 10.8 mg/dL
  POTASSIUM: 7.71 MEQ/L
  SODIUM: 141.33 MEQ/L
  TOTAL BILIRUBIN: 0.2 mg/dL
  TOTAL PROTEIN: 5.9 G/DL
  URIC ACID: 1.2 mg/dL
